{"source": "patent US6977254B2", "about": "“Hydroxy cyclohexenyl phenyl carboxamides tocolytic oxytocin receptor antagonists” (Wyeth, priority 2001, dated 2005)"}
{"target": "T1, human oxytocin receptor (Homo sapiens, UniProt P30559)", "T1 construct": "host or cells: CHO cells, stably transfected (pcDNA3.1 vector); membranes", "T1 sequence (P30559 1-389)": "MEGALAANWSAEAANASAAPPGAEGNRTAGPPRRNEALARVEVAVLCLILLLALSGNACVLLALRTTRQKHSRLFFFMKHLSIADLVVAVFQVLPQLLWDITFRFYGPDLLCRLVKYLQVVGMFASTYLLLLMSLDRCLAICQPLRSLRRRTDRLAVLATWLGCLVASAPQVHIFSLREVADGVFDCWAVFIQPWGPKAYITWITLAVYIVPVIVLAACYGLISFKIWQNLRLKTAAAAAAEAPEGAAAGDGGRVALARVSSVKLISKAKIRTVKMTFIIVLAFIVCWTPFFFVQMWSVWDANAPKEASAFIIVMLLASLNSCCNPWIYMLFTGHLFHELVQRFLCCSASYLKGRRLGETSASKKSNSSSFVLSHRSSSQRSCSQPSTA", "experiment": "Oxytocin binding in CHO cell membranes expressing human oxytocin receptors ([3H]oxytocin radioligand)", "conditions": "100 nM, value without parentheses", "description": "(§1) Oxytocin binding in Chinese Hamster Ovary cell membranes expressing human oxytocin receptors\n(§2) Chinese Hamster Ovary (CHO) cells stably transfected with the human oxytocin (cf. T. Kimura et al., U.S. Pat. No. 5,466,584 (1995) to Rohto Pharmaceutical Co. Ltd., Osaka, Japan) were obtained from Dr. M. Thibonnier, Case Western Reserve University School of Medicine, Cleveland, Ohio.\n(§3) A. Passaging and Amplification of Cells:\n(§4) CHO cells transfected with the human oxytocin receptors obtained from M. Thibonnier (pcDNA3.1 vector) are allowed to grow to confluency (approx. >90%) in T-150 flasks under sterile conditions, in a cell culture medium of F-12 Nutrient Mixture (HAM) with L-glutamine (Gibco Cat. #11765-054) containing 15 mM HEPES (Gibco Cat. #15630-080), 1% antibiotic/antimycotic (add 5 mL 100×, Gibco Cat. #15240-062 per 500 mL F-12), 400 μg/mL of Geneticin (add 4 mL of 50 mg/mL per 500 mL F-12) and 10% Fetal Bovine Serum (Qualified, heat inactivated, Gibco Cat. #16140-063). The medium is removed by aspiration and the cells are washed with 10 mL of Hank's Balanced Salt solution (Gibco Cat. #14175-095). The salt solution is removed by aspiration and the cells trypsinized with 5 mL of trypsin-EDTA (0.05% trypsin, 0.53 mM EDTA-4Na, Gibco Cat. #25300-070) for 1 min The trypsin is removed by aspiration and the cells dislodged by tapping. Cell Culture medium (e.g. 30 mL for 1:30 split) is immediately added and mixed well to inactivate trypsin. 1 mL of detached cells is added to new culture flasks containing fresh Cell Culture medium (e.g. into 25 mL per T-150 flask), and mixed gently. The cells are incubated at 37° C. in 5% CO2. The medium is changed at 3 to 4 days interval (or as appropriate). The cells grow to confluency (approx. >75%-95%) within 7-8 days. All steps are done under sterile conditions.\n(§5) The cells are washed twice gently with Hank's Balanced Salt solution (eg, use 10 mL per T-150 flask). The excess is removed and the cells bathed for 15-30 min. in an enzyme-free Cell Dissociation Buffer (eg, use 8 mL Hank's Based, Gibco Cat. #13150-016 per T-150 flask) until cells are loosened. The contents are transferred to centrifuge tubes (50 mL size) kept in ice bath. All subsequent steps are done at 4° C. The tubes are centrifuged at 300×g for 15 min (1380 rpm on SORVAL, Model RT6000D, using rotor for 50 mL tubes). The supernatant is discarded and the cells suspended in homogenizing buffer (10 mM Tris-HCl containing 0.25 M sucrose and 1 mM EDTA, pH 7.4) ensuring that the volume of the buffer is about ten times the volume of the cell pellet. The cells are pooled into a centrifuge tube (50 mL) and homogenized with Polytron at setting 6 for 10 sec. The homogenate is transferred into a Potter-Elvjehm homogenizer and homogenized with 3 strokes. The homogenate is centrifuged at 1500×g for 10 min at 4° C. (3100 rpm using SORVAL, model RT6000D, using rotor for 50 mL tubes). The pellet is discarded. The supernatant is centrifuged at 100,000×g for 60 min. at 4° C. (Beckman L8-80M ultracentrifuge; spin at 37,500 rpm with rotor type 70 Ti for 50 mL tubes; 38,000 rpm with type 80Ti for 15 mL tubes; or 35,800 rpm with rotor type 45Ti). The supernantant is discarded and the pellet suspended in 3 to 4 mL of Tris buffer (50 mM TRIS-HCl, pH 7.4). The protein content is estimated by the Bradford or Lowry method. The volume of the membrane suspension is adjusted with the membrane buffer (50 mM Tris-HCl containing 0.1% BSA and 0.1 mM PMSF) to give 3.0 mg/mL (or as appropriate) of protein. The membranes are aliquoted and stored at −70° C.\n(§6) C. Radioligand Binding Assay:\n(§7) In wells of a 96-well format microtiter plate, is added 90, 110 or 130 μL (to make up a final volume of 200 μL) of assay buffer containing 50 mM of Tris-HCl (pH 7.4), […], 1 mg % aprotinin, 1 mg % leupeptin, 2 mg % 1,10-phenanthroline, 10 mg % trypsin inhibitor, and 0.1 mM PMSF. The inhibitors are added on the day of the experiment. […]", "units": {"OT % inhibition @ 100 nM": "%"}}
{"smiles": "Cc1cc(C(=O)N2Cc3ccc(C(=O)C(Cl)(Cl)Cl)n3Cc3ccccc32)ccc1C1=CCCCC1", "note": "[Example 5D, 2,2,2-Trichloro-1-[10-(4-cyclohex-1-en-1-yl-3-methyl-benzoyl)-10,11-dihydro-5H-pyrrolo[2,1-c][1,4]benzodiazepin-3-yl]-methanone]", "OT % inhibition @ 100 nM": 10}
{"smiles": "Cc1cc(C(=O)N2Cc3ccc(C(=O)N[C@@H](Cc4ccc(O)cc4)C(=O)O)n3Cc3ccccc32)ccc1C1=CCCCC1", "note": "[Example 10]", "OT % inhibition @ 100 nM": 54}
{"smiles": "Cc1cc(C(=O)N2Cc3ccc(C(=O)N(CCO)CCO)n3Cc3ccccc32)ccc1C1=CCCc2ccccc21", "note": "[Example 16, {10-[4-(3,4-Dihydro-naphthalen-1-yl)-3-methyl-benzoyl]-10,11-dihydro-5H-pyrrolo[2,1-c][1,4]benzodiazepin-3-yl}-3-carboxylic acid bis-(2-hydroxy-ethyl)-amide]", "OT % inhibition @ 100 nM": 98}
{"smiles": "Cc1cc(C(=O)N2Cc3ccc(C(=O)N4CCN(CCO)CC4)n3Cc3ccccc32)ccc1C1=CCCCC1", "note": "[Example 17, {10-[4-(1-Cyclohex-1-en-1-yl)-3-methylbenzoyl]-10,11-dihydro-5H-pyrrolo[2,1-c][1,4]benzodiazepin-3-yl}[4-(2-hydroxyethyl)-1-piperazinyl]methanone]", "OT % inhibition @ 100 nM": 88}
{"target": "T1, human oxytocin receptor", "experiment": "Oxytocin binding in CHO cell membranes expressing human oxytocin receptors ([3H]oxytocin radioligand)", "conditions": "100 nM, value without parentheses, read-out: OT % inhibition @ 100 nM", "description": "as §1, §2, §3, §4, §5, §6, §7", "units": {"inhibition at 0.1 µM": "%"}}
{"smiles": "COc1cc(C2=CCCCC2)c(Cl)cc1C(=O)N1Cc2ccc(C(=O)O)n2Cc2ccccc21", "note": "[Example 1G, 10-(5-Chloro-4-cyclohex-1-en-1-yl-2-methoxybenzoyl)-10,11-dihydro-5H-pyrrolo[2,1-c][1,4]benzodiazepine-3-carboxylic acid]", "inhibition at 0.1 µM": 21}
{"smiles": "Cc1cc(C(=O)N2Cc3ccc(C(=O)O)n3Cc3ccccc32)ccc1C1=CCCCC1", "note": "[Example 5E, 10-(4-Cyclohex-1-en-1-yl-3-methyl-benzoyl)-10,11-dihydro-5H-pyrrolo[2,1-c][1,4]benzodiazepine-3-carboxylic acid]", "inhibition at 0.1 µM": 26}
{"smiles": "CCOC(=O)[C@H](Cc1ccc(O)cc1)NC(=O)c1ccc2n1Cc1ccccc1N(C(=O)c1ccc(C3=CCCCC3)c(C)c1)C2", "note": "[Example 9, (2S)-2-{[10-(4-Cyclohex-1-en-1-yl-3-methyl-benzoyl)-10,11-dihydro-5H-pyrrolo[2,1-c][1,4]benzodiazepine-3-carbonyl]-amino}-3-(4-hydroxy-phenyl)-propionic acid ethyl ester]", "inhibition at 0.1 µM": 23}
{"smiles": "Cc1cc(C(=O)N2Cc3ccc(C(=O)N[C@@H](CO)C(=O)O)n3Cc3ccccc32)ccc1C1=CCCCC1", "note": "[Example 13, (2S)-2-{[10-(4-Cyclohex-1-en-1-yl-3-methyl-benzoyl)-10,11-dihydro-5H-pyrrolo[2,1-c][1,4]benzodiazepine-3-carbonyl]-amino}-3-hydroxy-propionic acid]", "inhibition at 0.1 µM": 63}
{"smiles": "Cc1cc(C(=O)N2Cc3ccc(C(=O)N[C@H](CO)C(=O)O)n3Cc3ccccc32)ccc1C1=CCCCC1", "note": "[Example 14, (2R)-2-{[10-(4-Cyclohex-1-en-1-yl-3-methyl-benzoyl)-10,11-dihydro-5H-pyrrolo[2,1-c][1,4]benzodiazepine-3-carbonyl]-amino}-3-hydroxy-propionic acid]", "inhibition at 0.1 µM": 50}
{"smiles": "Cc1cc(C(=O)N2Cc3ccc(C(=O)O)n3Cc3ccccc32)ccc1C1=CCCc2ccccc21", "note": "[Example 15B, 10-[4-(3,4-Dihydro-naphthalen-1-yl)-3-methyl-benzoyl]-10,11-dihydro-5H-pyrrolo[2,1-c][1,4]benzodiazepine-3-carboxylic acid]", "inhibition at 0.1 µM": 19}
{"target": "T1, human oxytocin receptor", "experiment": "Oxytocin binding in CHO cell membranes expressing human oxytocin receptors ([3H]oxytocin radioligand)", "conditions": "value in parentheses, read-out: OT (IC50)", "description": "as §1, §2, §3, §4, §5, §6, §7", "units": {"IC50": "nM"}}
{"smiles": "COc1cc(C2=CCCCC2)c(Cl)cc1C(=O)N1Cc2ccc(C(=O)N(C)C[C@H](O)[C@@H](O)[C@H](O)[C@H](O)CO)n2Cc2ccccc21", "note": "[Example 1, 1-[[[10-[5-Chloro-4-(1-cyclohex-1-en-1-yl)-2-methoxybenzoyl]-10,11-dihydro-5H-pyrrolo[2,1-c][1,4]benzodiazepin-3-yl]carbonyl]methylamino]-1-deoxy-D-glucitol]", "IC50": 0.98}
{"smiles": "COC[C@@H](OC)[C@@H](OC)[C@H](OC)[C@H](CN(C)C(=O)c1ccc2n1Cc1ccccc1N(C(=O)c1cc(Cl)c(C3=CCCCC3)cc1OC)C2)OC", "note": "[Example 2, 10-(5-Chloro-4-cyclohex-1-en-1-yl-2-methoxybenzoyl)-N-methyl-N-[(2S,3R,4R,5R)-2,3,4,5,6-pentamethoxyhexyl]-10,11-dihydro-5H-pyrrolo[2,1-c][1,4]benzodiazepine-3-carboxamide]", "IC50": 19.6}
{"smiles": "COc1cc(C2=CCCCC2)c(Cl)cc1C(=O)N1Cc2ccc(C(=O)N(C)C[C@@H]3OC(=O)O[C@H]3[C@H](O)[C@H]3COC(=O)O3)n2Cc2ccccc21", "note": "[Example 3, 10-(5-Chloro-4-cyclohex-1-en-1-yl-2-methoxybenzoyl)-N-[((4S,5S)-5-{(R)-hydroxy[(4R)-2-oxo-1,3-dioxolan-4-yl]methyl}-2-oxo-1,3-dioxolan-4-yl)methyl]-N-methyl-10,11-dihydro-5H-pyrrolo[2,1-c][1,4]benzodiazepine-3-carboxamide]", "IC50": 4.92}
{"smiles": "Cc1cc(C(=O)N2Cc3ccc(C(=O)N(C)C[C@H](O)[C@@H](O)[C@H](O)[C@H](O)CO)n3Cc3ccccc32)ccc1C1=CCCCC1", "note": "[Example 5]", "IC50": 2.15}
{"smiles": "COC(=O)[C@H](CO)NC(=O)c1ccc2n1Cc1ccccc1N(C(=O)c1ccc(C3=CCCCC3)c(C)c1)C2", "note": "[Example 11, (2S)-2-{[10-(4-Cyclohex-1-en-1-yl-3-methyl-benzoyl)-10,11-dihydro-5H-pyrrolo[2,1-c][1,4]benzodiazepine-3-carbonyl]-amino}-3-hydroxy-propionic acid methyl ester]", "IC50": 76.2}
{"smiles": "COC(=O)[C@@H](CO)NC(=O)c1ccc2n1Cc1ccccc1N(C(=O)c1ccc(C3=CCCCC3)c(C)c1)C2", "note": "[Example 12, (2R)-2-{[10-(4-Cyclohex-1-en-1-yl-3-methyl-benzoyl)-10,11-dihydro-5H-pyrrolo[2,1-c][1,4]benzodiazepine-3-carbonyl]-amino}-3-hydroxy-propionic acid methyl ester]", "IC50": 47.1}
{"smiles": "Cc1cc(C(=O)N2Cc3ccc(C(=O)N(C)C[C@H](O)[C@@H](O)[C@H](O)[C@H](O)CO)n3Cc3ccccc32)ccc1C1=CCCc2ccccc21", "note": "[Example 15]", "IC50": 3.19}
{"system": "not given", "experiment": "not given", "conditions": "not given", "units": {"melting point": "°C"}}
{"smiles": "COc1cc(C2=CCCCC2)c(Cl)cc1C(=O)N1Cc2ccc(C(=O)N(C)C[C@H](O)[C@@H](O)[C@H](O)[C@H](O)CO)n2Cc2ccccc21", "note": "[Example 1, 1-[[[10-[5-Chloro-4-(1-cyclohex-1-en-1-yl)-2-methoxybenzoyl]-10,11-dihydro-5H-pyrrolo[2,1-c][1,4]benzodiazepin-3-yl]carbonyl]methylamino]-1-deoxy-D-glucitol]", "melting point": "72 to 73"}
{"smiles": "COc1cc(C2=CCCCC2)c(Cl)cc1C(=O)N1Cc2ccc(C(=O)N(C)C[C@@H]3OC(=O)O[C@H]3[C@H](O)[C@H]3COC(=O)O3)n2Cc2ccccc21", "note": "[Example 3, 10-(5-Chloro-4-cyclohex-1-en-1-yl-2-methoxybenzoyl)-N-[((4S,5S)-5-{(R)-hydroxy[(4R)-2-oxo-1,3-dioxolan-4-yl]methyl}-2-oxo-1,3-dioxolan-4-yl)methyl]-N-methyl-10,11-dihydro-5H-pyrrolo[2,1-c][1,4]benzodiazepine-3-carboxamide]", "melting point": "163 to 176"}
